Read-outs that look alike come from different tables or passages of the source.
How the values were obtained:
Assay in all cases: biochemical
Set-up in all cases: KINOMEscan scanMAX competition binding, DNA-tagged kinases, qPCR read-out, percent control at 300 nM
PAK6 = PAK6 (Homo sapiens, UniProt Q9NQU5)
ERBB2 = ERBB2 (Homo sapiens, UniProt P04626)
TEC = target: T1, TEC (Homo sapiens, UniProt P42680)
T1 sequence (P42680 1-631): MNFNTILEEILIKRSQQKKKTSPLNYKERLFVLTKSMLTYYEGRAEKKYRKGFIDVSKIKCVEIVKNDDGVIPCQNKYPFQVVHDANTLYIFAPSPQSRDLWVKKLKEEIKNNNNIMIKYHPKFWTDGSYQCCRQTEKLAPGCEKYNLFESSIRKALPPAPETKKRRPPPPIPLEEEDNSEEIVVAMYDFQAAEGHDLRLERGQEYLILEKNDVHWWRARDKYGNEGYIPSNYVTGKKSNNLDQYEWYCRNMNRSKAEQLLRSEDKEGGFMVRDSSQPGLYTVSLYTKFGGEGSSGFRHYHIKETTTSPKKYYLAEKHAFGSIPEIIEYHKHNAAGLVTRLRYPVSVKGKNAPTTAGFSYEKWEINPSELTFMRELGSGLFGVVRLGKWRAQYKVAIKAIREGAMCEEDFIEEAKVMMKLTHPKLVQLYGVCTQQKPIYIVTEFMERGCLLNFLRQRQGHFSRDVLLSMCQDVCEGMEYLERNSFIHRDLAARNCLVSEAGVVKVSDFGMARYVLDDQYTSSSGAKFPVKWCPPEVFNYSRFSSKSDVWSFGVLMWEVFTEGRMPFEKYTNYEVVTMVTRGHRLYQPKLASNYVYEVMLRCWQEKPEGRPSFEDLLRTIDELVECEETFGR

KIT(V559D,T670I) = KIT(V559D,T670I) (Homo sapiens, UniProt P10721, T670I/V559D)
PFTAIRE2 = target: T2, PFTAIRE2 (Homo sapiens, UniProt Q96Q40)
T2 construct: gene CDK15

BLK = BLK (Homo sapiens, UniProt P51451)
CLK3 = CLK3 (Homo sapiens, UniProt P49761)
EGFR = EGFR (Homo sapiens, UniProt P00533)
IRAK3 = target: T3, IRAK3 (Homo sapiens, UniProt Q9Y616)
T3 sequence (Q9Y616 1-596): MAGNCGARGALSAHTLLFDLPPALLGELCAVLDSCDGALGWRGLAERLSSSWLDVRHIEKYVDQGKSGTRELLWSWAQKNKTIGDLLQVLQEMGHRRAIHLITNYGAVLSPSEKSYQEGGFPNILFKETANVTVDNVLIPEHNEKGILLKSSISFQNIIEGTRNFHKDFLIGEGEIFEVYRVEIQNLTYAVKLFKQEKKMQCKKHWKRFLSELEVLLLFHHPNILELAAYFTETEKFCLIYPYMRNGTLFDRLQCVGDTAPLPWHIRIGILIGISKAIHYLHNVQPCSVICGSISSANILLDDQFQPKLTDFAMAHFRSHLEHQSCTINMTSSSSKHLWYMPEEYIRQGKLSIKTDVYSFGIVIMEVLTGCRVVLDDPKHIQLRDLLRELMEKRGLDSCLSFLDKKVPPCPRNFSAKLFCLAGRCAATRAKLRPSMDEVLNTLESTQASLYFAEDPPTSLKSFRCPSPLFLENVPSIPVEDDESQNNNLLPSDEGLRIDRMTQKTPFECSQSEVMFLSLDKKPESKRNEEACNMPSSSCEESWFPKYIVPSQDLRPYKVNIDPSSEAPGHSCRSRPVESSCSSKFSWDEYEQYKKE

MELK = MELK (Homo sapiens, UniProt Q14680)
CDKL2 = target: T4, CDKL2 (Homo sapiens, UniProt Q92772)
T4 sequence (Q92772 1-493): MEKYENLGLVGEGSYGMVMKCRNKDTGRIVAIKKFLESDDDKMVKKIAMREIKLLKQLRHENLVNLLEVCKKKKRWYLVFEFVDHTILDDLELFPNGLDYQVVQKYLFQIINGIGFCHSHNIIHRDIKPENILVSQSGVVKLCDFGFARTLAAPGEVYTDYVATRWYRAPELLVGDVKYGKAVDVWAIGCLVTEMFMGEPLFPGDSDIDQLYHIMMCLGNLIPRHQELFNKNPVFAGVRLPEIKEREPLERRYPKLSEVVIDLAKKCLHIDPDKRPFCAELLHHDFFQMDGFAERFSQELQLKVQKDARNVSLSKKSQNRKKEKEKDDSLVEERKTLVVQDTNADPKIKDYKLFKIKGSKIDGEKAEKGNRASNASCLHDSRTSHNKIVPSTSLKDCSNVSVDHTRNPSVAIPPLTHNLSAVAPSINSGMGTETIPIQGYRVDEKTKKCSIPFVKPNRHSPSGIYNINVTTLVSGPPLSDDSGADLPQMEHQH

[1] = read-out: Percent control / Acalabrutinib
[2] = read-out: Percent control / Ibrutinib
[3] = read-out: Percent control / Tirabrutinib
[4] = read-out: Percent control / Zanubrutinib

Sequence of KIT(V559D,T670I) (P10721 whole entry V559D/T670I): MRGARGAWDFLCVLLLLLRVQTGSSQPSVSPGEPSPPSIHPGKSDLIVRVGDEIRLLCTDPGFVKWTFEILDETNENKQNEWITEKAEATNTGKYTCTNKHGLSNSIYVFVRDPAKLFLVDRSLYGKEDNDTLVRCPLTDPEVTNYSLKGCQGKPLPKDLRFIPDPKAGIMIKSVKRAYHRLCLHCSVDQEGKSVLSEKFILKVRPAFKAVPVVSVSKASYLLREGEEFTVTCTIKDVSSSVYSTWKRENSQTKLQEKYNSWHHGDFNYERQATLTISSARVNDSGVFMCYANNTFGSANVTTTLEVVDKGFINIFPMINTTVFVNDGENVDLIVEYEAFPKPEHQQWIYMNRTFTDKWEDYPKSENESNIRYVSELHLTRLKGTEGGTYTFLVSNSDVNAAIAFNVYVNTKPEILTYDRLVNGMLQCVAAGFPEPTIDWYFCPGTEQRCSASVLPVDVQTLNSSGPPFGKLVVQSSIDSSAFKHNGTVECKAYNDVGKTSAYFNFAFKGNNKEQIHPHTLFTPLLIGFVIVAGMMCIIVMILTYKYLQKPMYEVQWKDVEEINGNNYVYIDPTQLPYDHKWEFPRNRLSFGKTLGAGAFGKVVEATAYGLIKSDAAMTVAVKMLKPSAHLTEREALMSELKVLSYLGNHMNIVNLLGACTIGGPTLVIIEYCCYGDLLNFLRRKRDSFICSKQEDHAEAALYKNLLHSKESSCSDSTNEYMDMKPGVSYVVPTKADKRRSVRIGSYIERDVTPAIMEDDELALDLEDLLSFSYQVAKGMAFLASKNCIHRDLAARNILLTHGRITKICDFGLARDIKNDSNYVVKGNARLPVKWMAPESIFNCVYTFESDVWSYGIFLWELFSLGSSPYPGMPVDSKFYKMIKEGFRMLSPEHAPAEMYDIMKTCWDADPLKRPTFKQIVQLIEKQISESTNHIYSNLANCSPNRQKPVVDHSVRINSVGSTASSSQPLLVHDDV
Sequence of PAK6 (Q9NQU5 whole entry): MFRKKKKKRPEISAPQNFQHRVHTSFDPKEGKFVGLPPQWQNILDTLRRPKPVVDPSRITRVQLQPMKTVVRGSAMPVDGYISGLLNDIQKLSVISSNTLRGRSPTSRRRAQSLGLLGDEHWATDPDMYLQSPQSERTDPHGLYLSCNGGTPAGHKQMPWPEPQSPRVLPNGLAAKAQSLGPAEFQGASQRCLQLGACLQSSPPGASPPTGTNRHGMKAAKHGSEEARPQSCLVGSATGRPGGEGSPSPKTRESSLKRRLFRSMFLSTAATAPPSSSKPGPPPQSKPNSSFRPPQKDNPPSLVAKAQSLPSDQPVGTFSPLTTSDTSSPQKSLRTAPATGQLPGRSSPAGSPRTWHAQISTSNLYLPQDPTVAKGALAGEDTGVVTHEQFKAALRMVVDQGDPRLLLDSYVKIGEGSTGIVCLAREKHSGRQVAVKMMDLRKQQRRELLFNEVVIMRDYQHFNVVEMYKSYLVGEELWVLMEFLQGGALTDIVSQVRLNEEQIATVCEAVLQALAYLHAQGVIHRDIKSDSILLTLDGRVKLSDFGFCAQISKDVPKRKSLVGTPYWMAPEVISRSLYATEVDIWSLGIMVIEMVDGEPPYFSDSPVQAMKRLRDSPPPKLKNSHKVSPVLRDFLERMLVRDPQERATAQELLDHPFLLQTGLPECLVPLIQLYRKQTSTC
Sequence of BLK (P51451 whole entry): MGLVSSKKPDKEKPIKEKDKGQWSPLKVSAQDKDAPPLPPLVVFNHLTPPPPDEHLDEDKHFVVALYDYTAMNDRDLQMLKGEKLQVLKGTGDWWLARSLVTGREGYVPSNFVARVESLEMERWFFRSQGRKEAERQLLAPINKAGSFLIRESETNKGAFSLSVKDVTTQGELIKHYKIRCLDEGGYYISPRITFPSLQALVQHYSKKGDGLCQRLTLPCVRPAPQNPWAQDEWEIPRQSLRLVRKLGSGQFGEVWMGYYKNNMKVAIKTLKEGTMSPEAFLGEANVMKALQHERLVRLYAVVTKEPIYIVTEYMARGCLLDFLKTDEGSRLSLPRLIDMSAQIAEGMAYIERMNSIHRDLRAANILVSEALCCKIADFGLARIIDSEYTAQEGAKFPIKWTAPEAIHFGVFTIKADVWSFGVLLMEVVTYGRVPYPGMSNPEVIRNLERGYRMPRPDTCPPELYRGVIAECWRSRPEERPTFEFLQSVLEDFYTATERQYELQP
T2 sequence (Q96Q40 whole entry): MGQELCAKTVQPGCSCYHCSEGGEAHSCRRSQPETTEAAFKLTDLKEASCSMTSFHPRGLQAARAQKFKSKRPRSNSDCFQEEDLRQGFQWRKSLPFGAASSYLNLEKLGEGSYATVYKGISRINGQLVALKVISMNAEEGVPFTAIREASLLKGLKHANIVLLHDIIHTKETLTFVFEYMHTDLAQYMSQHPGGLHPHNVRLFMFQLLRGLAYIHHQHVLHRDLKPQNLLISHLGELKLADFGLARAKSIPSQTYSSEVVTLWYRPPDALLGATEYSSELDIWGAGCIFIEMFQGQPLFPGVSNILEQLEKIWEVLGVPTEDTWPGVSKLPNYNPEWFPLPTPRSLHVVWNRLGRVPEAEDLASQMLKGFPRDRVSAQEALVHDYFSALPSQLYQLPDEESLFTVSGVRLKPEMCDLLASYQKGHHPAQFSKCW
Sequence of MELK (Q14680 whole entry): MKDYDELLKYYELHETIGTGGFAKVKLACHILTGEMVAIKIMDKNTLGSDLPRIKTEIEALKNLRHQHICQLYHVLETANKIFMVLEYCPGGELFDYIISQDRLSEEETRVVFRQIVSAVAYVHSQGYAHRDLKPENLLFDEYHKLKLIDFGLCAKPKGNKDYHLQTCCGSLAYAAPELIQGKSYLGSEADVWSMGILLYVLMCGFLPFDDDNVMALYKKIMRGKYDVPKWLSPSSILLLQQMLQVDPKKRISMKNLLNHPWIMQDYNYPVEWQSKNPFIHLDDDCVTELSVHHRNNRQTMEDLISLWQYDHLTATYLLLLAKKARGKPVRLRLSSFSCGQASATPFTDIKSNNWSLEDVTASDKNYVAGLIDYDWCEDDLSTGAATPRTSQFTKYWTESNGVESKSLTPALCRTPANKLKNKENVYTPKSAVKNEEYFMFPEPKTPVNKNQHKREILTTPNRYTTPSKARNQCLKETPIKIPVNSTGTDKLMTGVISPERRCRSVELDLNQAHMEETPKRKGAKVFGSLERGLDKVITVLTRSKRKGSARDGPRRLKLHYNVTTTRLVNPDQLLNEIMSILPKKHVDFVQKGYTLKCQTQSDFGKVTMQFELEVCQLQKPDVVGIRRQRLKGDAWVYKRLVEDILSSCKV
Sequence of EGFR (P00533 whole entry): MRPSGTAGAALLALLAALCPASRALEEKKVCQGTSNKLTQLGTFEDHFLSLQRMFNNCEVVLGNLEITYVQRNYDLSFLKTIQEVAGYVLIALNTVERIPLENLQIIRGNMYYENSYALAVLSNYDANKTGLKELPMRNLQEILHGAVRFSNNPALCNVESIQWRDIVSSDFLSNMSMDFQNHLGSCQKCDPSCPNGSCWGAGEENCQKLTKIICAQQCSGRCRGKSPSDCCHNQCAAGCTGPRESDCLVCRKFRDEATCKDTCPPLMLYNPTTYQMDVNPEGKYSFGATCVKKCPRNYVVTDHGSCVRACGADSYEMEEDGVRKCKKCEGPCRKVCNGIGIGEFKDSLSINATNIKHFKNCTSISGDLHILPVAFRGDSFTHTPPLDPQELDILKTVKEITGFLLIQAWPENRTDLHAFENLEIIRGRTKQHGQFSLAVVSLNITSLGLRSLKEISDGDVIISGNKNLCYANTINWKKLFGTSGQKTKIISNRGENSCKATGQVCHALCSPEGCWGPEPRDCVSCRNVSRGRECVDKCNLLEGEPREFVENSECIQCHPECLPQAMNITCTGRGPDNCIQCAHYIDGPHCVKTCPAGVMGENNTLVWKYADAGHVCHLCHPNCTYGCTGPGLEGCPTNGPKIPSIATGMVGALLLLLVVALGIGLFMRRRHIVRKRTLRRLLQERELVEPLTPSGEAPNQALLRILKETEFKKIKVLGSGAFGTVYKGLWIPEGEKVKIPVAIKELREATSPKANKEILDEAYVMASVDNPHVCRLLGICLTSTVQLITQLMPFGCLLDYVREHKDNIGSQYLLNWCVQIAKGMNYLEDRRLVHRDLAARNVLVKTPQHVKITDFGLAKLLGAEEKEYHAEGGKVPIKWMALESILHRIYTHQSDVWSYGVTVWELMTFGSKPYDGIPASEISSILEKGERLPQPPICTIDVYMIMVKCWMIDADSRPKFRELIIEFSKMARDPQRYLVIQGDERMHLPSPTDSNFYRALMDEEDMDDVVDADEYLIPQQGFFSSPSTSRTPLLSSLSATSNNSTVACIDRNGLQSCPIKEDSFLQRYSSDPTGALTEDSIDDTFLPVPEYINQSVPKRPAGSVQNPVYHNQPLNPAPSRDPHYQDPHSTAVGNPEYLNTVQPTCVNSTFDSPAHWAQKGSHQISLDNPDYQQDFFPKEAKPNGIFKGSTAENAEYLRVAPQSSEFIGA
Sequence of CLK3 (P49761 whole entry): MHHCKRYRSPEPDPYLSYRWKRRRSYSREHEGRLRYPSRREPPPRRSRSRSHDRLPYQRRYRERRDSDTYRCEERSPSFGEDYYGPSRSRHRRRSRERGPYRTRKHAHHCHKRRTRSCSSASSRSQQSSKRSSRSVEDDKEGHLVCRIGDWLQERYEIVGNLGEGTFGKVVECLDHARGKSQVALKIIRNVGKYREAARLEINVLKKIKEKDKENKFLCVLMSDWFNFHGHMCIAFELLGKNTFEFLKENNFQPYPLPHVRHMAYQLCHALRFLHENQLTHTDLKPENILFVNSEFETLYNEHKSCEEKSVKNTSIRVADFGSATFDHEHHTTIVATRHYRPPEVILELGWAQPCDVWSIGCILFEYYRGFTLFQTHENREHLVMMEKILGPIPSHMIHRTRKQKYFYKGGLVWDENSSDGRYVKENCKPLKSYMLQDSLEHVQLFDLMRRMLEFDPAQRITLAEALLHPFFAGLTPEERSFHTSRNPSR

CC#CC(=O)N1CCC[C@H]1c1nc(-c2ccc(C(=O)Nc3ccccn3)cc2)c2c(N)nccn12 [Acalabrutinib]
remaining binding at 0.3 µM (PAK6; [1]): 88% | remaining binding at 0.3 µM (ERBB2; [1]): 11% | remaining binding at 0.3 µM (TEC; [1]): 4.1% | remaining binding at 0.3 µM (KIT(V559D,T670I); [1]): 78% | remaining binding at 0.3 µM (PFTAIRE2; [1]): 82% | remaining binding at 0.3 µM (BLK; [1]): 80% | remaining binding at 0.3 µM (CLK3; [1]): 94% | remaining binding at 0.3 µM (EGFR; [1]): 82% | remaining binding at 0.3 µM (IRAK3; [1]): 86% | remaining binding at 0.3 µM (MELK; [1]): 81%

C=CC(=O)N1CCC[C@@H](n2nc(-c3ccc(Oc4ccccc4)cc3)c3c(N)ncnc32)C1 [Ibrutinib]
remaining binding at 0.3 µM (TEC; [2]): 6% | remaining binding at 0.3 µM (CDKL2; [2]): 99% | remaining binding at 0.3 µM (PFTAIRE2; [2]): 89% | remaining binding at 0.3 µM (BLK; [2]): 0.5% | remaining binding at 0.3 µM (EGFR; [2]): 0.2% | remaining binding at 0.3 µM (IRAK3; [2]): 86% | remaining binding at 0.3 µM (MELK; [2]): 74%

CC#CC(=O)N1CC[C@@H](n2c(=O)n(-c3ccc(Oc4ccccc4)cc3)c3c(N)ncnc32)C1 [Tirabrutinib]
remaining binding at 0.3 µM (PAK6; [3]): 98% | remaining binding at 0.3 µM (ERBB2; [3]): 36% | remaining binding at 0.3 µM (TEC; [3]): 7.8% | remaining binding at 0.3 µM (CDKL2; [3]): 84% | remaining binding at 0.3 µM (KIT(V559D,T670I); [3]): 98% | remaining binding at 0.3 µM (PFTAIRE2; [3]): 99% | remaining binding at 0.3 µM (BLK; [3]): 39% | remaining binding at 0.3 µM (CLK3; [3]): 82% | remaining binding at 0.3 µM (EGFR; [3]): 100% | remaining binding at 0.3 µM (IRAK3; [3]): 80% | remaining binding at 0.3 µM (MELK; [3]): 82%

C=CC(=O)N1CCC([C@@H]2CCNc3c(C(N)=O)c(-c4ccc(Oc5ccccc5)cc4)nn32)CC1 [Zanubrutinib]
remaining binding at 0.3 µM (PAK6; [4]): 91% | remaining binding at 0.3 µM (ERBB2; [4]): 16% | remaining binding at 0.3 µM (TEC; [4]): 20% | remaining binding at 0.3 µM (CDKL2; [4]): 100% | remaining binding at 0.3 µM (KIT(V559D,T670I); [4]): 62% | remaining binding at 0.3 µM (CLK3; [4]): 82% | remaining binding at 0.3 µM (IRAK3; [4]): 91% | remaining binding at 0.3 µM (MELK; [4]): 59%

— paper PMC10004634 (PLOS ONE, 2023)
